Reference: US20040167131A1, “Inhibitors of factor Xa and other serine proteases involved in the coagulation cascade” (Pfizer Inc., priority 2002, published 2004)

Tests used:
rat = details: arteriovenous shunt and venous stasis models; cited from earlier work
human factor Xa = molecular target: T1, human factor Xa (Homo sapiens, UniProt P00742); assay: Determination of Factor Xa IC50 (cleavage of fluorogenic substrate F-S2765); format: biochemical; details: 3 pM human factor Xa; read-out: FXa 3 pM IC50
T1 construct: purchased Enzyme Research Laboratories
Experimental: The ability of compounds to act as inhibitors of human factor Xa catalytic activity was assessed by determination of that concentration of test substance that inhibited by 50% (IC50) the ability of human factor Xa to cleave the fluorogenic substrate F-S2765 (N-α-Z-D-Arg-Gly-Arg-pNA HCl, California Peptide Research). […] The IC50 was determined at 3 pM and/or 30 pM concentrations of human factor Xa (Enzyme Research Laboratories). These concentrations were achieved by diluting a stock solution of human factor Xa in the appropriate amount of buffer containing 10 mM HEPES, 150 mM NaCl, and 0.1% BSA at pH 7.4 (HBSA buffer). Accordingly, 73 μL of the factor Xa/buffer solution was added to 2.5 μL of DMSO-reconstituted compound and incubated for 55 minutes at room temperature. After warming to 37° C. for am additional 5 minutes, 50 μL of rewarmed substrate was added and the IC50 determined by monitoring the increase in absorbance at 390 nm excitation/460 nm emission (455 nm cutoff) in a fluorometric plate reader or 30 minutes.

human plasma = assay: Determination of Prothrombin Time (PT); format: biochemical; details: concentration required to increase the clotting time by 2-fold, human tissue thromboplastin
Experimental: The prothrombin time (PT) is a measure of extrinsic and common pathway factors. In this assays, human tissue thromboplastin is added to human plasma which activates pathway factors, including factor X activation to factor Xa, leading to clot formation. Significant inhibition of factor Xa, by a small molecule inhibitor, will reduce the conversion of prothrombin to thrombin and thereby increase the time to clot formation in this assay. The value 2 X PT is the concentration of the inhibitor required to increase the clotting time by 2-fold.

rabbit = rabbit model of venous thrombosis; cited from earlier work
dog = details: adjunct to recombinant tissue plasminogen activator; cited from earlier work
canine coronary artery = canine coronary artery electrolytic lesion model; cited from earlier work

T1 sequence (P00742 235-488 limits assumed): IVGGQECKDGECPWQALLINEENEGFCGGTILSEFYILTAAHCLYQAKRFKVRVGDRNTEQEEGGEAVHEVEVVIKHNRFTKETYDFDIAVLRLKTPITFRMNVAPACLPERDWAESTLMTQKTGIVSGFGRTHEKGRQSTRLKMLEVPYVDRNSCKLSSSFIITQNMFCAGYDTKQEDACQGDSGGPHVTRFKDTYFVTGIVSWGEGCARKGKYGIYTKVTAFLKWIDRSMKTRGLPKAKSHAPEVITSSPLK
T1 sequence (P00742 41-179 partner limits assumed): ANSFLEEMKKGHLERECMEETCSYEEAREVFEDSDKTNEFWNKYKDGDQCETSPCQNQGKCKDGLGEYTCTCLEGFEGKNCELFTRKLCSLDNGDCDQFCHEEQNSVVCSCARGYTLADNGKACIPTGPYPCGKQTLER

In the case of `CC(=N)N1CC[C@H](Oc2ccc([C@H](Cc3ccc4ccc(C(=N)N)cc4c3)C(=O)O)cc2)C1` [DX9065a], the “inhibition of thrombus formation” value (rat) is given as “inhibition of thrombus formation was achieved at doses that had little effect on APTT”.
In the case of `CS(=O)(=O)c1ccccc1-c1ccc(NC(=O)C2(NC(=O)Nc3ccc(Cl)cc3)CCCC2)cc1` [Example 1, 1-[3-(4-Chloro-phenyl)-ureido]-cyclopentanecarboxylic acid (2′-methanesulfonyl-biphenyl-4-yl)-amide], the IC50 (human factor Xa) is reported as 38 nM and the “PT Conc. 2X Prolong.” value (human plasma) is reported as 13.45 µM.
In the case of “rTAP: recombinant tick anticoagulant peptide, a protein or polypeptide factor Xa inhibitor (YNRLCIKPRDWIDECDSNEGGERAYFRNGKGGCDSFWICPEDHTGADYYSSYRDCFNACI; UniProt P17726 1-60, looked up)”, the fibrin deposition (rabbit) is listed as “reduce fibrin deposition”, the “clot lysis and reocclusion” value (dog) is listed as “accelerate the recombinant tissue plasminogen activator mediated clot lysis and prevent acute reocclusion” and the “thrombus mass and time to occlusion” value (canine coronary artery) is listed as “reduce thrombus mass and time to occlusion”.
